In patent publication US20230233591A1, “METHOD FOR TREATING […]” (priority 2020, published 2023):
Counter-ions that a name gives are not always drawn.

Assays:
CPXV [1] = experiment: microbe, parasite or virus in culture; format: cell-based
VACV [2] = experiment: microbe, parasite or virus in culture; format: cell-based; details: Orthopoxvirus vaccinia, Vero C1008, 24 h
CPXV [3] = experiment: microbe, parasite or virus in culture; format: cell-based; details: Cowpox virus, Vero C1008, 24 h
in vitro [4] = details: human
VACV [5] = experiment: microbe, parasite or virus in culture; format: cell-based; details: Orthopoxvirus vaccinia, Huh-7, 24 h
in vitro [6] = details: African green monkey

Structure (SMILES): NC(=O)c1cn([C@@H]2O[C@H](CO)[C@@H](O)[C@H]2O)c2ncnc(N)c12 [Oya2, 4-amino-7-((2R,3R,4S,5R)-3,4-dihydroxy-5-(hydroxymethyl)tetrahydrofuran-2-yl)-7H-pyrrolo[2,3-d]pyrimidine-5-carboxamide hydrochloride]
- IC50 (CPXV [1]; hydrochloride): 240 ± 10 nM

Structure (SMILES): NC(=O)c1cn([C@@H]2O[C@H](CO)[C@@H](O)[C@H]2O)c2ncnc(N)c12 [Oya1, 4-amino-7-((2R,3R,4S,5R)-3,4-dihydroxy-5-(hydroxymethyl)tetrahydrofuran-2-yl)-7H-pyrrolo[2,3-d]pyrimidine-5-carboxamide]
- IC50 (VACV [2]): 20 ± 10 nM
- IC50 (CPXV [3]): 200 ± 10 nM
- CC50 (in vitro [4]): > 600 nM
- IC50 (VACV [5]): 50 ± 10 nM
- IC50 (CPXV [1]; Cowpox virus, Huh-7, 24 h): 220 ± 10 nM
- CC50 (in vitro [6]): > 600 nM
